Assay results from patent US9561193B2, “Oral and skin care compositions based on a 3,3-Dialkyl-1,1-biphenyl-2,2-diol or a 3,3-Dialkenyl-1,1-biphenyl-2,2-diol” (Colgate-Palmolive Company, priority 2011, dated 2017).
Values after ≈ are worked out from the molar mass of the structure shown.

Columns and labels:
Type in all cases: cell-based
[1] = test system: Prostaglandin E2 (PGE2); test: PGE2 EIA anti-inflammatory assay in IL-1β or HKPG stimulated cells; settings: PGE2 level; human embryo palatal mesenchyme cells; IL-1β (10 ng/ml) or heat-killed P. gingivalis (HKPG); overnight incubation
Experimental: Prostaglandin E2 (PGE2) is a key mediator of periodontal inflammation and its expression is a well-established as a biomarker associated with gingival inflammation. […] The data of Table 9 were obtained generally according to the following method: A 100 μL aliquot of DMEM media (Dulbecco's Modified Eagle Medium) (Invitrogen, Carlsbad, Calif.) containing either IL-1β (10 ng/ml) (Roche Applied Science, Indianapolis Ind.) or 10^8 heat-killed Prophynomonas gingivalis (HKPG) into each well of a sterile 96-well plate (“mirror plate”). An additional 98 μl aliquot of DMEM media containing either IL-1β or HKPG was added to the first well in each row. […]
Each well of a second plate containing growing cells (human embryo palatal mesenchyme cells, catalog no. CRL-1486; ATCC, Manassas, Va.) is washed twice with PBS, after which any remaining media is aspirated from the wells. […] An additional 30 μL aliquot of media is added to each well to adjust the final volume to 100 μL and the level of PGE2 determined using a detection kit generally according to the manufacturer's instructions (PEG2-EIA Kit, catalogue no. 901-001; Assay Designs Inc, Ann Arbor Mich.) and software (GraphPad Prism, GraphPad Software, Inc., San Diego Calif.).

[2] = test system: A. viscosus; test: Minimum Inhibitory Concentration test, oral bacteria; settings: Actinomyces viscosus, trypticase soy broth, 18-24 hours of incubation
Experimental: (§1) Table 1 (below) describes the antibacterial efficacy (Minimum Inhibitory Concentration test) of Compound (3) [drawing 5] which is an exemplary compound of the present invention, against common oral bacteria, A. viscosus, S. mutans, S. oralis, S. sanguis, and L. casei. Minimum Inhibitory Concentration values are determined generally according to the following method: A series of two-fold dilutions of compound (3) in trypticase soy broth (Catalog No. 211768; Becton Dickinson, Franklin Lakes N.J.) was prepared in a 96 well plate and a constant amount of bacteria was then added to each well. After 18-24 hours of incubation, bacterial growth was measured with a Spectrophotometric Micro-plate Reader (Powerwave 5×, BioTEK, Winooski Vt.) and the MIC values were determined Results are provided in Table 1: […]

[3] = test system: L. casei; test: as above; settings: Lacticaseibacillus casei, trypticase soy broth, 18-24 hours of incubation
Experimental: as §1

[4] = test system: S. mutans; test: as above; settings: Streptococcus mutans, trypticase soy broth, 18-24 hours of incubation
Experimental: as §1

[5] = test system: S. oralis; test: as above; settings: Streptococcus oralis, trypticase soy broth, 18-24 hours of incubation
Experimental: as §1

[6] = test system: S. sanguis; test: as above; settings: trypticase soy broth, 18-24 hours of incubation
Experimental: as §1

[7] = test system: Corynebacterium minutissimum (C. minutissimum); test: Minimum Inhibitory Concentration (MIC), skin bacteria; settings: 18-24 hours of incubation
Experimental: (§2) Compound (3) was evaluated for its antibacterial efficacy against representative skin bacteria such as Staphylococcus aureus (S. aureus), Corynebacterium minutissimum (C. minutissimum), and Escherichia coli (E. coli). Minimum Inhibitory Concentration (MIC), and a Short Interval Kill Test (SIKT) were performed, and the results are described in Table 6 and Table 7 (below). MIC values against three common skin bacteria were determined for Compound (3) using the following method: A series of two-fold dilutions of Compound (3) was prepared in a 96 well plate and a constant amount of bacteria was added to each well. After 18-24 hours of incubation, bacterial growth was measured with a Spectrophotometric Micro-plate Reader and the MIC values were determined.

[8] = test system: Escherichia coli (E. coli); test: as above; settings: 18-24 hours of incubation
Experimental: as §2

[9] = test system: Staphylococcus aureus (S. aureus); test: as above; settings: 18-24 hours of incubation
Experimental: as §2

[10] = test system: Escherichia coli (E. coli); test: Short Interval Kill Test (SIKT); settings: 1 minute exposure
Experimental: (§3) Compound (3) was evaluated for its antibacterial efficacy against representative skin bacteria such as Staphylococcus aureus (S. aureus), Corynebacterium minutissimum (C. minutissimum), and Escherichia coli (E. coli). Minimum Inhibitory Concentration (MIC), and a Short Interval Kill Test (SIKT) were performed, and the results are described in Table 6 and Table 7 (below).
(§4) The SIKT test determines the kill effect of a test compound at a predetermined exposure time. The SIKT values presented below in Table 7, were obtained generally according to the following method: An aliquot of Compound (3) in a volume of 1.2 mL is transferred into a sterile test tube, to which 0.2 mL of a freshly prepared bacterial suspension (OD adjusted to 0.1 at 620 nm) is added and gently mixed. The reaction is neutralized at the 1 minute point by adding a neutralizing broth. The resulting mixture is then further diluted (serial ten-fold dilutions) with Letheen broth and an aliquot of each dilution is plated on MCA (Microbial Count Agar) plates for viable bacterial count.

[11] = test system: Staphylococcus aureus (S. aureus); test: Short Interval Kill Test (SIKT); settings: 1 minute exposure
Experimental: as §3, §4

SMILES: C=CCc1ccc(O)c(-c2cc(CC=C)ccc2O)c1 [Magnolol, reference compound]
- IC50 [1]: 0.40 ppm

SMILES: CCCc1cccc(-c2cccc(CCC)c2O)c1O [Compound (3), [1,1-Biphenyl]-2,2′-diol,3,3′ dipropyl]
- MIC [2]: 3.9 µg/mL (≈ 14.4 µM)
- MIC [3]: 7.8 µg/mL (≈ 28.8 µM)
- MIC [4]: 7.8 µg/mL (≈ 28.8 µM)
- MIC [5]: 7.8 µg/mL (≈ 28.8 µM)
- MIC [6]: 3.9 µg/mL (≈ 14.4 µM)
- MIC [7]: 62.5 µg/mL (≈ 231 µM)
- MIC [8]: 62.5 µg/mL (≈ 231 µM)
- MIC [9]: 31.2 µg/mL (≈ 116 µM)
- SIKT (% Reduction in viable count in 1 min.) [10]: 99.55%
- SIKT (% Reduction in viable count in 1 min.) [11]: 99.99%
- IC50 [1]: 0.25 ppm
